These results are taken from PMC3759295 (Toxicology letters, 2013).

Data set [1] addresses T1, AhR (Homo sapiens, UniProt P35869).
T1 sequence (P35869 11-848): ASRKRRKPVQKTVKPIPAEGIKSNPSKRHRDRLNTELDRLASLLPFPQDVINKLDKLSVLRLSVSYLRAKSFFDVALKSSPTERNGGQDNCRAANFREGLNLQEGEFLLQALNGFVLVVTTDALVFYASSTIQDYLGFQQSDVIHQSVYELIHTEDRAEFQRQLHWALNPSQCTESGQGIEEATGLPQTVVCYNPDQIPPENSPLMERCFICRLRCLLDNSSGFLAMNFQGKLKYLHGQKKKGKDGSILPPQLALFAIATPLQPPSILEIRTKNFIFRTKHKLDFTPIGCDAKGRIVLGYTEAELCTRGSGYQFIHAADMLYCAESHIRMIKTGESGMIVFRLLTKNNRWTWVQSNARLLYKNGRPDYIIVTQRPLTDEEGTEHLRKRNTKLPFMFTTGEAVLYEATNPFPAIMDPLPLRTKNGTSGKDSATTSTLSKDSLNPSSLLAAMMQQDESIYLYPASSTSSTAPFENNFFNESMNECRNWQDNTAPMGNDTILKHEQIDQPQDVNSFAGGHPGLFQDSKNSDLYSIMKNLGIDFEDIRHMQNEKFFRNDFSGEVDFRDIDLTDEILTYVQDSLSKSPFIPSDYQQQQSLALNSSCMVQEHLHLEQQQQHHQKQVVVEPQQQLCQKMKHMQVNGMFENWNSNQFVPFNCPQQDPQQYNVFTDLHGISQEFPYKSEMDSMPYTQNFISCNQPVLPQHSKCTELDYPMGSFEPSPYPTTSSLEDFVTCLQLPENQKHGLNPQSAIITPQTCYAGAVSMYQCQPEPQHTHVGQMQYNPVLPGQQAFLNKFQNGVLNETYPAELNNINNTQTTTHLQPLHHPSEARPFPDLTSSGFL
Put plainly: Gene reporter assay, transcriptional activity of AhR in AZ-AHR reporter cells. To be noted: 10 µM and 50 µM, 24 h.

The test system of data set [2] is CYP1A1. To be noted: read-out: IC50, inhibition of CYP1A1; aglycons (anthocyanidins); ref Kamenickova et al. 2013; cited from earlier work.
In data set [3] the test system is CYP1A1 mRNA. Put plainly: CYP1A1 mRNA expression in primary human hepatocytes. The format is cell-based. The note with it: human.
The subject of data set [4] is CYP1A1 mRNA in primary human hepatocytes. Described as above. The format is cell-based. To be noted: 24 h; for CYP1A1 mRNA fold induction over the vehicle-treated cells, LH47: hepatocyte culture LH47, 50 µM; for CYP1A1 mRNA fold induction over the vehicle-treated cells, LH48: hepatocyte culture LH48 (so in the source), 50 µM.
Where [5] appears, read: primary human hepatocytes (culture LH48 as printed).
Where [6] appears, read: male, primary human hepatocytes (culture LH45).
[7] abbreviates: male, primary human hepatocytes (culture LH46).
Where [8] appears, read: male, primary human hepatocytes (culture LH47).

For the compound `Oc1cc(O)c2c(c1)O[C@@]1(c3ccc(O)c(O)c3)Oc3cc(O)c4c(c3[C@@H]2[C@H]1O)O[C@H](c1ccc(O)c(O)c1)[C@H](O)C4` [PAC, proanthocyanidin A2], in data set [1], the “induction of luciferase activity” value was “No significant induction”.

Take `Oc1cc(O)c2cc(O)c(-c3cc(O)c(O)c(O)c3)[o+]c2c1` [delphinidin]: the IC50 in data set [2] was 77 µM.

As for `COc1cc(-c2[o+]c3cc(O)cc(O)c3cc2O[C@@H]2O[C@H](CO)[C@@H](O)[C@H](O)[C@H]2O)cc(OC)c1O` [MAL-1, malvidin-3-O-glucoside chloride], the fold induction at 24 h, 50 µM in data set [3] (setting [5]) was found to be 0.29 ± 0.03; in data set [3] (setting [6]) it was 0.93 ± 0.11; in data set [3] (setting [7]), 1.56 ± 0.23; in data set [3] (setting [8]), 0.14 ± 0.13. Also, the results for the fold induction at 24 h, 10 µM in data set [3] (setting [6]) and in data set [3] (setting [7]) were 1.13 ± 0.35 and 2.34 ± 0.25, respectively.

Turning to `C[C@@H]1O[C@@H](OC[C@H]2O[C@@H](Oc3cc4c(O)cc(O)cc4[o+]c3-c3cc(O)c(O)c(O)c3)[C@H](O)[C@@H](O)[C@@H]2O)[C@H](O)[C@H](O)[C@H]1O.[Cl-]` [DEL-2, delphinidin-3-O-rutinoside chloride], the “CYP1A1 mRNA fold induction over the vehicle-treated cells, LH45” value in data set [4] (hepatocyte culture LH45, 10 µM) is on record as 1.53 ± 0.36 fold; in data set [4] (hepatocyte culture LH45, 50 µM), 0.53 ± 0.11 fold. Moreover, the “CYP1A1 mRNA fold induction over the vehicle-treated cells, LH46” value was found to be 1.34 ± 0.10 fold in data set [4] (hepatocyte culture LH46, 10 µM) and 0.68 ± 0.01 fold in data set [4] (hepatocyte culture LH46, 50 µM). In addition, in data set [4], the “CYP1A1 mRNA fold induction over the vehicle-treated cells, LH47” value is given as 0.23 ± 0.05 fold. Moreover, in data set [4], the “CYP1A1 mRNA fold induction over the vehicle-treated cells, LH48” value is 0.02 ± 0.01 fold.

With `OC[C@H]1O[C@@H](Oc2cc3c(O)cc(O)cc3[o+]c2-c2ccc(O)c(O)c2)[C@H](O)[C@@H](O)[C@@H]1O` [CYA-1, cyanidin-3-O-glucoside chloride], the fold induction at 24 h, 50 µM in data set [3] (setting [5]) was 0.03; in data set [3] (setting [6]), 0.73 ± 0.22; in data set [3] (setting [7]), 1.04 ± 0.12; in data set [3] (setting [8]), 0.28 ± 0.01. For the same compound, the fold induction at 24 h, 10 µM in data set [3] (setting [6]) worked out at 1.22 ± 0.04; in data set [3] (setting [7]) it was 1.14 ± 0.2.

As for `OC[C@H]1O[C@@H](Oc2cc3c(O)cc(O)cc3[o+]c2-c2cc(O)c(O)c(O)c2)[C@H](O[C@@H]2OC[C@@H](O)[C@H](O)[C@H]2O)[C@@H](O)[C@@H]1O.[Cl-]` [DEL-4, delphinidin-3-O-sambubioside chloride], the “CYP1A1 mRNA fold induction over the vehicle-treated cells, LH45” value in data set [4] (hepatocyte culture LH45, 10 µM) turned out to be 0.26 ± 0.21 fold; in data set [4] (hepatocyte culture LH45, 50 µM), 0.34 ± 0.09 fold. The “CYP1A1 mRNA fold induction over the vehicle-treated cells, LH46” value in data set [4] (hepatocyte culture LH46, 10 µM) amounted to 1.11 ± 0.20 fold; in data set [4] (hepatocyte culture LH46, 50 µM) it was 1.31 ± 0.05 fold. For the same compound, in data set [4], the “CYP1A1 mRNA fold induction over the vehicle-treated cells, LH47” value turned out to be 0.21 ± 0.26 fold. Also, the “CYP1A1 mRNA fold induction over the vehicle-treated cells, LH48” value in data set [4] amounted to 0.07 ± 0.01 fold.

`Oc1ccc(-c2[o+]c3cc(O)cc(O)c3cc2O)cc1` [pelargonidin]: the IC50 in data set [2] is 33 µM.
